Data set [1] has as its system human leukemia cells. Kind of data set: Leukemia cell morphology after overnight incubation. Format: cell-based. The settings on record: overnight incubation (Fig. 4C).
The test system of data set [2] is OCI-AML3 cells. As to the kind of experiment: Cell death assay. It counts as cell-based, human. The settings on record: OCI-AML3, overnight at 37 °C, 40 μM or higher, AnnexinV-FITC/PI flow cytometry. On the technique in general: In flow cytometry, cells or beads pass a laser one at a time.
In data set [3] the test system is mononuclear cells from normal bone marrow. Format: cell-based, human.

This note sets out measurements from article PMC4490100 (Clinical cancer research : an official journal of the …, 2015).

“CGRRAGGSC-GG-D(KLAKLAK)2 (disulfide) [BMTP-11]”: the “effect on leukemia cell morphology” value in data set [1] was “affected the morphology”. Besides, the “cell death (fraction of cells)” value in data set [2] is listed as ~ 90%. Further, the “effects on mononuclear cells from normal bone marrow” value in data set [3] is recorded as “no detectable effects”.
